In data set [1] the test system is RAW264.7 cells. The following applies: stimulated with LPS; cited from earlier work. From the text: (§1) One of the primary virulence factors of periodontitis, Pg-LPS, targets TLR4, which activates the NF-kB signaling pathway and triggers the secretion of inflammatory cytokines such as TNFα, IL-6, and chemokines, recruiting monocytes/macrophages to the site of infection. […] Cecropin A, a novel 37-residue cecropin-like antimicrobial ...

The test system of data set [2] is THP-1 differentiated macrophage cell line. Kind of data set: Cytotoxicity evaluation of Pg-LPS by MTT method. It is filed as cell-based, human. The following applies: 24 h, 0.25-4 µg/mL. On the procedure:
The THP-1 cell line was cultured in DMEM and supplemented with 10% FBS, sodium bicarbonate, L-glutamine, and an antibiotic solution containing penicillin (100 U/mL), amphotericin B (2.5 µg/mL), and streptomycin (100 µg/mL). The cells were maintained in a 5% humidified CO2 incubator (NBS Eppendorf, Germany) at 37°C. To induce differentiation into macrophages, the THP-1 cell line was treated with 25 ng/mL phorbol 12-myristate 13-acetate (PMA) (cat. 91585, Sigma-Aldrich, USA) and incubated for 48 hours. Following incubation, the cells were seeded in a 96-well culture plate at a density of 5x10^4 cells/well and incubated for 24 hours in a humidified 5% CO2 incubator at 37°C.
After incubation of 24 hours, triplicate additions of Pg-LPS in various concentrations (0.25 µg, 0.5 µg, 1 µg, 2 µg, and 4 µg/mL) were done appropriately. […] The inhibitory concentration (IC50) value of Pg-LPS was determined by the ED50 software.
Inverted phase contrast microscopy (IPCM) using an Olympus CKX41 microscope (Olympus, Japan) equipped with an Optika Pro5 CCD camera (Optika, Italy) was utilized to directly observe the cells. Cell viability was determined using the MTT (3-(4,5-Dimethylthiazol-2-yl)-2,5-diphenyltetrazolium bromide) assay (Sigma, M-5655). […] The absorbance of this colored solution can be quantified by measuring at approximately 570 nm using a spectrophotometer. […]

Data set [3] has as its system THP-1 cells. Kind of data set: Intracellular ROS generation, DCFDA assay. It is filed as cell-based, human. The note with it: Pg-LPS 1 µg/mL alone; DCFDA 30 min, ex 470 nm, em 635 nm; untreated control 2379. On the procedure:
Untreated control and Pg-LPS treated wells were also maintained. The cells were washed with PBS, and 50 µl of Dichlorodihydrofluorescein diacetate (DCFDA) was added, followed by incubation for 30 minutes. After incubation, excess dye was removed with PBS, and fluorescence was observed using a fluorescent microscope (Olympus CKX41 with Optika Pro5 CCD camera) and quantified with a fluorimeter at 470 nm excitation and emission at […] (Qubit 3.0, Life Technologies, USA), displaying the results in arbitrary units (AU).
The effect of β-defensin 1 on ROS generation in THP-1 cells stimulated with Pg-LPS was studied. DCFDA, a fluorogenic dye, measures hydroxyl, peroxyl, and other ROS activities within the cell. After entering the cell, DCFDA is deacetylated by cellular esterases into a non-fluorescent compound. This nonfluorescent chemical is then oxidized by ROS into […] (DCF), which, upon excitation with a blue filter, emits green fluorescence. When THP-1 cells were stimulated with Pg-LPS, there was a considerable increase in fluorescence, which decreased upon treatment with β-defensin 1, as shown in Figure 7 and Table 2.

Data set [4] relates to THP-1 cells. Kind of data set: Cell cycle distribution by flow cytometry. It is filed as cell-based, human. The following applies: Pg-LPS alone, compared to untreated control cells. On the procedure: Untreated control and Pg-LPS stimulated cells were also maintained. The MUSE Cell Cycle Kit was added, and the manufacturer's instructions were followed.
Background: In flow cytometry, cells or beads pass a laser one at a time.

The subject of data set [5] is THP-1 cells. Kind of data set: Apoptosis by flow cytometry (Annexin V & Dead Cell). The data set is classed as cell-based, human. The following applies: Pg-LPS 1 µg/mL alone. On the procedure: Untreated control and Pg-LPS treated wells were also maintained. To the tubes, 100 μL of the Muse™ Annexin V & Dead Cell Reagents were added separately. The tubes were completely mixed by pipetting up and down or spinning at a medium speed for three to five seconds, followed by 20 minutes of incubation in the dark at room temperature. The cells were examined with a Flow Cytometer, gated against untreated control cells, and evaluated for apoptosis with the Muse FCS 3.0 software.
The Muse Annexin V & Dead Cell Kit is a method to analyze cells in various stages of apoptosis, where fluorescently labeled Annexin V binds to phosphatidylserine (PS), which translocates to the outer surface of the cell membrane upon the onset of apoptosis. 7-AAD is excluded from live and healthy cells and permeates late-stage apoptotic and dead cells. […] The result is depicted in Figure 9.

Data set [6] deals with phagocytosis. The following applies: via its effect on the cytoskeletal network; cited from earlier work. The text has this: Two important functions of macrophages are to eliminate pathogens through phagocytosis and apoptosis of inflammatory cells and their subsequent clearance (efferocytosis). The present study analyzed the role of AMP, β-defensin 1, in Pg-LPS-stimulated THP-1 differentiated macrophage cells.

The conditions of data set [7]: directly interacting with LPS; cited from earlier work.
Source text: as §1

Data set [8] relates to endothelial cells. The following applies: cited from earlier work.
Source text: as §1

No end group written: not given here.

On to “Cecropin A: a novel 37-residue cecropin-like antimicrobial peptide isolated from a cecropia moth (KWKLFKKIEKVGQNIRDGIIKAGPAVAVVGQATQIAK; ends and bridges not checked; UniProt P01507 27-63, looked up)”, for which the anti-inflammatory activities entry in data set [1] was “showed anti-inflammatory activities”.
“Porphyromonas gingivalis lipopolysaccharide [Pg-LPS]”: the “cytotoxicity (in words)” value in data set [2] is “dose-dependent cytotoxicity”. For the same substance, the “ROS generation, Fluorescence intensity” value in data set [3] stood at 10743.55 AU. The “G0/G1 phase of the cell cycle (in words)” value in data set [4] is recorded as “increase in the G0/G1 phase of the cell cycle”. This substance also displayed a live cells in data set [5] (untreated control 87.25%) of 74.40%. For the same substance, the “necrotic effect / Dead” value in data set [5] (untreated control Dead 3.65 %) is 22.85%. In data set [6], the effect on phagocytosis result is given as “suppresses phagocytosis”.
As for cathelicidin, the LPS-neutralizing effect entry in data set [7] is on record as “potent LPS-neutralizing effect”. The LPS-induced apoptosis entry in data set [8] was “reducing LPS-induced apoptosis in endothelial cells”.

(Values after publication PMC10799292, “The Role of β-Defensin 1 Against Porphyromonas gingivalis Lipopolysaccharide-Mediated Inflammation in the THP-1 Cell Line” (Cureus, 2023).)
